{"source": "patent EP0840727B1", "about": "“3-HYDROXY-2(1H)-[…] AGENTS” (priority 1995, dated 1997)", "key": {"[1]": {"assay": "Promoting excretion of U(VI) in mice by injected ligand", "type": "in vivo", "text": "(§1) Animal studies were completed using methods detailed in Radiation Protection Dosimetry, in press, P. W. Durbin et al., \"In Vivo Chelation of Am(III), Pu(IV), Np(V) and U(VI) in Mice by TREN-(Me-3,2-HOPO)\"; Radiation Protection Dosimetry, 17, No. 1, 1989, p. 351, P. W. Durbin et al., \"Removal of ^238Pu(IV) from Mice by Polycatechoylate, -Hydroxamate or -Hydroxypyridinonate Ligands\"; Radiation Research, 99, 1984, p. 85, P. W. Durbin et al., \"Specific Sequestering Agents for the Actinides ...\"; Radiation Research, 99, 1984, p. 106, P. W. Durbin et al., \"Removal of Pu and Am from Beagles and Mice ...\"; Radiation Research, 81, 1980, p. 170, R. D. Lloyd et al., and P. W. Durbin et al., \"Specific Sequestering Agents for the Actinides ...\". The foregoing articles are hereby incorporated by reference.\nThe ^232U was obtained from the Isotope Products Laboratory, Burbank, CA, and ^234,235U was obtained as U metal from long-held LBL storage. The two U sources were combined and dissolved in 6N HNO3, dried, and redissolved in 0.1 N HCl. The daughter radioactivities were removed by elution from a Dowex-50X4 column (22 cm length, 0.7 cm diameter, 1.5 mL·min^-1 flow rate) with 3.2N HCl. The U fractions (previously identified by a trial run with ^234,235U alone) were combined, dried, and redissolved in 0.14M NaCl at pH 5.5.\n(§2) One of the comparative chelating agents TREN-Me-3,2-HOPO, was also tested for effectiveness in promoting excretion of ^241Am(III), ^237Np(V), and ^232U(VI) by injection into mice, as follows: Mice, in groups of five, each received an intravenous injection of (a) 1100 Bq of ^241AM(III) in 0.2 mL of citrate buffer, (b) 150 Bq of ^232UO2Cl2 plus 3.6 mg of ^235UO2Cl2 in 0.2 mL of saline, or (c) 200 Bq of ^237NpO2Cl (7.5 mg of ^237NpO2Cl) in 0.2 mL of saline. Three to five minutes later, […] of TREN-Me-3,2-HOPO was injected intraperitoneally in 0.5 mL of saline. The mice were killed 24 hours after the actinide injection, frozen, and dissected after partial thawing. The skeleton, soft tissues, and separated excreta were radioanalyzed by counting the ^241Am gamma rays, or the alpha particles emitted by ^237Np or ^232U (and its ingrowing daughters). Removal of those actinides from mice by injected TREN-Me-3,2-HOPO is summarized in Table 5, which also includes data for mice similarly treated with CaNa3-DTPA and for actinide-injected controls. […] The structure of Am(III)-TREN-Me-3,2-HOPO is considered to resemble that of the Gd(III) complexes (see example 20). Complexation of the fraction of Np(V) that is reduced in vivo to Np(IV) is considered to resemble that of Pu(IV). Complexation of U(VI) is considered to take place through binding to UO2^2+."}, "[2]": {"assay": "Promoting excretion of 238Pu(IV) in mice by orally administered ligands", "type": "in vivo", "details": "of ligand by gavage three minutes after iv ^238Pu(IV); kill at 24 hours", "text": "as §1\nRadionuclides used in the animal studies came from a variety of sources. However, they can be purchased commercially. […]\nThe novel chelating agents of the present invention and comparative compounds were tested for their effectiveness in promoting excretion of ^238Pu(IV) by oral administration to mice as follows. […] The ^238Pu(IV) in skeleton, soft tissues, and separated excreta was determined by counting the ^234U L x-rays. […]"}, "[3]": {"assay": "In vivo acute toxicity test of injected ligands in mice", "procedure": "The test of acute toxicity of novel and comparative ligands was carried out as follows. Groups of five mice were each given a single i.p. injection of […] of ligand and a day for 10 days or given two i.p. injections of […] in 8 hours. The ligand was dissolved in 0.5 to 1.0 ml of saline at pH 7 to 8. After a period of observation, the mice were killed; selected tissues were removed and fixed for histopathological examination; and unusual findings at autopsy were recorded. […]"}, "[4]": {"assay": "Promoting excretion of 237Np(V) in mice by injected ligand", "type": "in vivo", "text": "as §1\nThe ^237Np(V) was obtained from J. Bucher of the LBL Actinide Chemistry group as NpO2Cl in 0.1 M HCl. It was diluted to the desired radioactivity concentration in 0.14M NaCl and the pH was adjusted to about 4.5 with NaOH just before use.\nas §2"}, "[5]": {"details": "U(VI), ligand 30 mmol.kg-1 i.p at 3 to 5 min after actinide i.v., kill at 24 h"}, "[6]": {"details": "U(VI), ligand 30 mmol.kg-1 i.p at 3 to 5 min after actinide i.v., kill at 24 h, pooled"}, "[7]": {"details": "intraperitoneally three to five minutes after actinide"}, "[8]": {"details": "protocol I, 100 µmol kg^-1 x 10 daily i.p., study length 11 d"}, "[9]": {"details": "protocol I, 100 µmol kg^-1 x 10 daily i.p., study length 21 d"}, "[10]": {"details": "protocol II, 500 µmol kg^-1 x 2 in 8 h, study length 8 d"}, "[11]": {"details": "Np(V), ligand 30 mmol.kg-1 i.p at 3 to 5 min after actinide i.v., kill at 24 h"}, "[12]": {"details": "Np(V), ligand 30 mmol.kg-1 i.p at 3 to 5 min after actinide i.v., kill at 24 h, pooled"}}, "note": "Marks after values point to notes of the source that are not given here."}
{"compound": "Cn1ccc(C(=O)NCCN(CCNC(=O)c2ccn(C)c(=O)c2O)CCNC(=O)c2ccn(C)c(=O)c2O)c(O)c1=O", "note": "[TREN-Me-3,2-HOPO, N,N,N,-Tris[(3-hydroxy-1-methyl-2-oxo-1,2-dihydropyridin-4-yl)carboxamidoethyl]-amine]", "values": [{"measurement": "percent of injected actinide ± SD at 24 h, tissues: kidneys", "setting": "[1]; [5]", "result": "9.4 ± 6.0^d,e percent of injected actinide"}, {"measurement": "percent of injected actinide ± SD at 24 h, tissues: skeleton", "setting": "[1]; [5]", "result": "16 ± 2.4% of injected actinide"}, {"measurement": "percent of injected actinide ± SD at 24 h, tissues: soft tissue", "setting": "[1]; [5]", "result": "1.6 ± 0.3% of injected actinide"}, {"measurement": "percent of injected actinide ± SD at 24 h, whole body", "setting": "[1]; [5]", "result": "27 ± 8.5^d,e percent of injected actinide"}, {"measurement": "percent of injected actinide ± SD at 24 h, tissues: liver", "setting": "[1]; U(VI), ligand 30 mmol.kg-1 i.p at 3 to 5 min after actinide i.v., kill at 24 h, livers of some groups pooled", "result": "0.6 ± 0.3% of injected actinide"}, {"measurement": "percent of injected actinide at 24 h, excreta: feces and GI contents", "setting": "[1]; [6]", "result": "2.3% of injected actinide"}, {"measurement": "percent of injected actinide at 24 h, excreta: urine 0-24 h", "setting": "[1]; [6]", "result": "70% of injected actinide"}, {"measurement": "U burden in the kidneys compared with controls (in words)", "setting": "[1]; [7]", "result": "more than one-half of the U burden in the kidneys was removed"}, {"measurement": "Pu removal by oral administration (in words)", "setting": "[2]", "result": "the more effective in both (by oral and injection) cases"}, {"measurement": "toxicity (in words)", "setting": "[3]; even at the relatively high dosage of 2x500 µmol/kg in 8 hours", "result": "low toxicity"}, {"measurement": "no. of survivors", "setting": "[3]; [8]", "result": 5}, {"measurement": "percent control mean + SD: body weight", "setting": "[3]; [8]", "result": "102 ± 1", "unit": "percent control"}, {"measurement": "percent control mean + SD: plasma urea N", "setting": "[3]; [8]", "result": "112 ± 10", "unit": "percent control"}, {"measurement": "no. of survivors", "setting": "[3]; [9]", "result": 5}, {"measurement": "percent control mean + SD: body weight", "setting": "[3]; [9]", "result": "106 ± 4", "unit": "percent control"}, {"measurement": "percent control mean + SD: plasma urea N", "setting": "[3]; [9]", "result": "120 ± 9", "unit": "percent control"}, {"measurement": "no. of survivors", "setting": "[3]; [10]", "result": 19}, {"measurement": "percent control mean + SD: body weight", "setting": "[3]; [10]", "result": "101 ± 4", "unit": "percent control"}, {"measurement": "percent control mean + SD: plasma urea N", "setting": "[3]; [10]", "result": "119 ± 15", "unit": "percent control"}, {"measurement": "percent of injected actinide ± SD at 24 h, tissues: skeleton", "setting": "[4]; [11]", "result": "34 ± 4.5% of injected actinide"}, {"measurement": "percent of injected actinide ± SD at 24 h, tissues: soft tissue", "setting": "[4]; [11]", "result": "3.1 ± 1.1% of injected actinide"}, {"measurement": "percent of injected actinide ± SD at 24 h, whole body", "setting": "[4]; [11]", "result": "42 ± 11^d,e percent of injected actinide"}, {"measurement": "percent of injected actinide at 24 h, excreta: feces and GI contents", "setting": "[4]; [12]", "result": "17% of injected actinide"}, {"measurement": "percent of injected actinide at 24 h, excreta: urine 0-24 h", "setting": "[4]; [12]", "result": "40% of injected actinide"}, {"measurement": "percent of injected actinide at 24 h, tissues: kidneys", "setting": "[4]; [12]", "result": "1.0% of injected actinide"}, {"measurement": "Np content of the soft tissues compared with controls (in words)", "setting": "[4]; [7]", "result": "the Np content of the soft tissues was significantly reduced"}]}
